According to patent US11795457B2, “Compositions and methods for treatment of Friedreich's Ataxia” (The Board of Regents of The University of Texas System, priority 2014, dated 2023):
Where two headings read alike, the source gives them in different places. Oligonucleotides are written 5' to 3', each unit as a sugar letter and its base; * is a phosphorothioate linkage, no mark a phosphodiester; rarer units and linkages stand in square brackets, end groups in braces. Plain capitals give the bases only. l = locked nucleic acid (LNA); d = 2'-deoxy (DNA)

Tests used:
FXN mRNA = FXN mRNA expression by quantitative PCR in FRDA patient-derived fibroblast cells; assay type: cell-based, human; details: GM03816 cells, 5 μM, averaged quadruplicate experiments (FIG. 2B)
Protocol: Tissue culture and transfection of synthetic nucleic acids. Fibroblast cells (Coriell Institute, GM03816 and GM02513) were cultured in minimum essential medium (MEM) supplemented with 10% FBS and 1% NEAA. All cells were grown at 37° C. in 5% Co2. Lipofectamine RNAiMAX (Invitrogen) was used to transfect siRNAs or LNA following the manufacturer's recommended protocol in OptiMEM low serum medium (Invitrogen). Growth media was changed to full medium after 24 h. Transfected cells were harvested 72 h after transfection for RNA extraction and qPCR analyses, and 96 h after transfection for western blot analysis. Sequences of siRNAs and RNAs used in these studies are listed in Table S1 and Table S2, respectively. Quantitative PCR. Identical volumes of RNA (representing approximately the same number of cells and ranging from 1-2 μg of RNA) were treated with 2 units of DNase I (Worthington) in DNase I buffer (10 mM Tris-HCl, pH 7.0, 10 mM NaCl, 2 mM MgCl2, 0.5 mM CaCl2)) for 15 min at room temperature to degrade any genomic DNA contamination. Afterwards, DNase I heat-inactivated at 75° C. for 10 min. Treated RNAs were reverse-transcribed using the High Capacity cDNA Reverse Transcription Kit (Applied Biosystems). Quantitative PCR (qPCR) was performed using SYBR Supermix (Biorad) with ˜50 ng of cDNA as template. Data were normalized relative to measured HPRT levels. […]

FXN protein = FXN protein expression by western blot in FRDA patient-derived fibroblast cells; assay type: cell-based, human; details: GM03816 cells; for FXN protein expression, LNAs: 12.5 nM, day 4 (FIGS. 4B-E)
Protocol: (§1) Tissue culture and transfection of synthetic nucleic acids. Fibroblast cells (Coriell Institute, GM03816 and GM02513) were cultured in minimum essential medium (MEM) supplemented with 10% FBS and 1% NEAA. All cells were grown at 37° C. in 5% Co2. Lipofectamine RNAiMAX (Invitrogen) was used to transfect siRNAs or LNA following the manufacturer's recommended protocol in OptiMEM low serum medium (Invitrogen). Growth media was changed to full medium after 24 h. Transfected cells were harvested 72 h after transfection for RNA extraction and qPCR analyses, and 96 h after transfection for western blot analysis. Sequences of siRNAs and RNAs used in these studies are listed in Table S1 and Table S2, respectively.
Western blot analysis. Cell extracts were prepared using lysis buffer supplemented with 1% Protease Inhibitor Cocktail Set I (Calbiochem) as described previously (Punga & Buhler, 2010). Protein was separated on 4-20% gradient or 15% SDS-PAGE TGX pre-cast gels (BioRad). After gel electrophoresis, proteins were transferred to nitrocellulose membrane (Hybond-C Extra, GE Healthcare Life Sciences) at 100 V for 45-60 min. Membranes were blocked for 30 min at room temperature with 5% milk protein in PBS+0.05% TWEEN-20 (PBST).
Blocked membranes were incubated with the primary antibodies at 4° C. in PBST and 5% milk with rocking overnight: anti-FXN at 1:300 (Abcam, ab110328), anti-tubulin at 1:6000-10000 (Sigma-Aldrich, T5201). After primary antibody incubation, membranes were washed 3 times for 5 min at room temperature with PBST then incubated for 30-45 min at room temperature with HRP-conjugated anti-mouse (Jackson Laboratories, 715-035-150) in PBST+5% milk. Membranes were washed again 3× for 15 min in PBST at room temperature, then protein bands visualized using SuperSignal West Pico Chemiluminescent Substrate (Thermo Scientific). For quantification of protein levels from Western blots of cellular fractions, films were scanned and bands quantified using ImageJ.
HDAC inhibitor and mRNA stability assay. Histone deacetylase inhibitor BML-210 (Abcam) (5 μM) was applied to FRDA fibroblast cells (GM03816) by following the procedure described in Herman et al (2006)^27. Cells were collected for qPCR and Western blot analyses as mentioned above. For mRNA stability assay, cells were transfected with siGAA or CM as above, and 5 μg/mL actinomycin D (Sigma) was added with fresh media 3 day after transfection, and cells were collected at the indicated time points for RNA extraction and qPCR analysis.

[1] = tested on: histone H3 and H4 acetylation, FXN mRNA and protein; details: lymphoid cells or primary lymphocytes; cited from earlier work
frataxin protein = details: patients, daily oral administration, cited from earlier work
Tm of siRNA duplex = assay type: physicochemical
FXN = FXN expression in FRDA patient-derived cells, mRNA or protein not specified; assay type: cell-based, human; details: GM03816 cells, 25 nM (FIG. 3B)
Protocol: as §1

[2] = tested on: interferon responsive genes; assay: qPCR of interferon responsive genes (off-target); assay type: cell-based, human; details: GM03816 cells, 25 nM, 3 days after transfection, compared with CM control
Protocol: as §1
Quantitative PCR. Identical volumes of RNA (representing approximately the same number of cells and ranging from 1-2 μg of RNA) were treated with 2 units of DNase I (Worthington) in DNase I buffer (10 mM Tris-HCl, pH 7.0, 10 mM NaCl, 2 mM MgCl2, 0.5 mM CaCl2)) for 15 min at room temperature to degrade any genomic DNA contamination. Afterwards, DNase I heat-inactivated at 75° C. for 10 min. Treated RNAs were reverse-transcribed using the High Capacity cDNA Reverse Transcription Kit (Applied Biosystems). Quantitative PCR (qPCR) was performed using SYBR Supermix (Biorad) with ˜50 ng of cDNA as template. Data were normalized relative to measured HPRT levels.

## Nc1ccccc1NC(=O)CCCCCCC(=O)Nc1ccccc1 [BML210]
FXN mRNA
  FXN mRNA levels: did not reveal a significant increase
FXN protein; 5 μM, averaged quadruplicate experiments (FIG. 2C)
  FXN protein levels: did not reveal a significant increase
[1]
  Acetylation of histone H3 and H4 and FXN mRNA and protein: increased acetylation of histone H3 and H4 leading to upregulation of FXN mRNA and protein

## NC(=O)c1cccnc1 [nicotinamide]
Frataxin protein; 3.8 g
  Increase of frataxin protein concentration: 1.5 times
Frataxin protein; 7-5 g
  Increase of frataxin protein concentration: doubling

## PS-LNA11: LNA with PS backbone complementary to antisense RNA, GAAGAAGAAGAAGAAGAAG (SEQ ID NO: 33) (dG*lA*lA*dG*lA*lA*dG*lA*lA*dG*lA*lA*dG*lA*lA*dG*lA*lA*dG)
FXN protein
  FXN protein expression, LNAs: inert

## PS-LNA12: LNA with PS backbone complementary to antisense RNA, AAGAAGAAGAAGAAGAAGA (SEQ ID NO: 34) (dA*dA*lG*dA*dA*lG*dA*dA*lG*dA*dA*lG*dA*dA*lG*dA*dA*lG*dA)
FXN protein
  FXN protein expression, LNAs: inert

## PS-LNA13: LNA with PS backbone complementary to antisense RNA, AGAAGAAGAAGAAGAAGAA (SEQ ID NO: 35) (lA*dG*lA*lA*dG*lA*lA*dG*lA*lA*dG*lA*lA*dG*lA*lA*dG*lA*lA)
FXN protein
  FXN protein expression, LNAs: inert

## scramble: duplex RNA in which the sequences of siGAA and siAAG are mixed: ss GAGAAAGAGAAAAGGAAAGdTdT (SEQ ID NO: 15), as SEQ ID NO: 16 (sense GAGAAAGAGAAAAGGAAAGNN; antisense CUUUCCUUUUCUCUUUCUCNN; dTdT overhangs; modified_base (20)..(21) n = thymidine; (20)..(21) n is a, c, g, t or u) [reference compound]
Tm of siRNA duplex
  Tm for duplex: 66.13 ^+C

## siAAG5mm: similar to siAAG but has five mismatches: ss AACAATAATACGCAGAAGAdTdT (SEQ ID NO: 17), as SEQ ID NO: 18 (sense AACAATAATACGCAGAAGANN; antisense UCUUCUGCGUAUUAUUGUUNN; dTdT overhangs; modified_base (20)..(21) n = thymidine; (20)..(21) n is a, c, g, t or u) [reference compound]
Tm of siRNA duplex
  Tm for duplex: 63.24 ^+C

## siAAG: duplex RNA: ss AAGAAGAAGAAGAAGAAGAdTdT (SEQ ID NO: 2), as UCUUCUUCUUCUUCUUCUUdTdT (SEQ ID NO: 10) (sense AAGAAGAAGAAGAAGAAGANN; antisense UCUUCUUCUUCUUCUUCUUNN; dTdT overhangs; modified_base (20)..(21) n = thymidine; (20)..(21) n is a, c, g, t or u)
Tm of siRNA duplex
  Tm for duplex: 64.67 ^+C

## siAGA: duplex RNA: ss AGAAGAAGAAGAAGAAGAAdTdT (SEQ ID NO: 11), as UUCUUCUUCUUCUUCUUCUdTdT (SEQ ID NO: 12) (sense AGAAGAAGAAGAAGAAGAANN; antisense UUCUUCUUCUUCUUCUUCUNN; dTdT overhangs; modified_base (20)..(21) n = thymidine; (20)..(21) n is a, c, g, t or u)
Tm of siRNA duplex
  Tm for duplex: 64.3 ^+C

## siExon2: duplex siRNA that targets FXN exon: ss GAGUGUCUAUUUGAUGAAUdTdT (SEQ ID NO: 13), as SEQ ID NO: 14 (sense GAGUGUCUAUUUGAUGAAUNN; antisense AUUCAUCAAAUAGACACUCNN; dTdT overhangs; modified_base (20)..(21) n = thymidine; (20)..(21) n is a, c, g, t or u) [reference compound]
Tm of siRNA duplex
  Tm for duplex: 64.53 ^+C

## siExon3: positive control for transfection efficiency targeting exon 3 of FXN: ss GACCACCUAUGAAAGACUAdTdT (SEQ ID NO: 21), as SEQ ID NO: 22 (sense GACCACCUAUGAAAGACUANN; antisense UAGUCUUUCAUAGGUGGUCNN; dTdT overhangs; modified_base (20)..(21) n = thymidine; (20)..(21) n is a, c, g, t or u) [reference compound]
Tm of siRNA duplex
  Tm for duplex: 73.65 ^+C

## siGAA9,10mm: anti-GAA duplex RNA with central mismatches on both strands: ss GAAGAAGAUCAAGAAGAAGdTdT (SEQ ID NO: 19), as CUUCUUCUUAGUCUUCUUCdTdT (SEQ ID NO: 20) (sense GAAGAAGAUCAAGAAGAAGNN; antisense CUUCUUCUUAGUCUUCUUCDTDT; dTdT overhangs; modified_base (20)..(21) n = thymidine; (20)..(21) n is a, c, g, t or u)
FXN; listed as siGAA 9.10 mm
  Activation of FXN expression by duplex with central mismatches: activates FXN expression at a level similar to the analogous fully complementary duplex RNA
FXN; listed as siGAA9.10 mm
  Activation of FXN expression by duplex with central mismatches: activated FXN expression as well as fully complementary duplexes siGAA or siAAG
Tm of siRNA duplex
  Tm for duplex: 54.4 ^+C

## siGAA: duplex RNA: ss GAAGAAGAAGAAGAAGAAGdTdT (SEQ ID NO: 1), as CUUCUUCUUCUUCUUCUUCdTdT (SEQ ID NO: 9) (sense GAAGAAGAAGAAGAAGAAGNN; antisense CUUCUUCUUCUUCUUCUUCNN; dTdT overhangs; modified_base (20)..(21) n = thymidine; (20)..(21) n is a, c, g, t or u)
FXN protein; day 4 (FIG. 1F)
  FXN protein expression (dose response profile): upregulation of FXN protein expression
[2]
  mRNA expression of interferon responsive genes: does not induce expression of interferon responsive genes
Tm of siRNA duplex
  Tm for duplex: 65.64 ^+C
